Strand notation (5' to 3'): a small letter for the sugar, then the base; units joined by * are phosphorothioate-linked, units joined directly phosphodiester-linked; [ ] holds rarer units or linkages, { } end groups; capitals alone tell only the bases. e = 2'-O-(2-methoxyethyl) (MOE); [5mC] = 5-methylcytosine; d = 2'-deoxy (DNA)
How the values were obtained:
rat JNK1 mRNA = assay: Northern assay, rat JNK1 (p54?) mRNA in A10 cells; assay type: cell-based; details: for inhibition of rat JNK1 mRNA levels: Table 20
Experimental: (§1) In order to study the role of JNK proteins in animal models, oligonucleotides targeted to the genes encoding JNK1, JNK2 and JNK3 of Rattus norvegicus were prepared. These oligonucleotides are 2′-methoxyethoxy, phosphodiester/2′-hydroxyl, phosphorothioate/2′-methoxyethoxy, phosphodiester “gapmers” in which every cytosine residue is 5-methylcytosine (msc). These antisense compounds were synthesized according to the methods of the disclosure. Certain of these oligonucleotides are additionally specifically hybridizable to JNK genes from other species as indicated herein. The oligonucleotides described in this Example were tested for their ability to modulate rat JNK mRNA levels essentially according to the methods described in the preceding Examples, with the exceptions that the cell line used was rat A10 aortic smooth muscle cells (ATCC No. ATCC CRL-1476) and the probes used were specific for rat JNK1, JNK2 or JNK3 (see infra). A10 cells were grown and treated with oligonucleotides essentially as described by (Cioffi et al. Mol. Pharmacol., 1997, 51, 383).
(§2) These antisense compounds were tested for their ability to modulate levels of p54? (JNK1) and p54a (JNK2) mRNA in A10 cells via Northern assays. Due to the high degree of sequence identity between the human and rat genes, radiolabeled human JNK1 (Example 3) and JNK2 (Example 4) cDNAs functioned as specific probes for the rat homologs.
(§3) A dose response study was conducted using oligonucleotides targeted to rat JNK1 (ISIS 21859; SEQ ID NO:113) and JNK2 (ISIS 18259; SEQ ID NO:130) and Northern assays.

JNK2 mRNA = assay: Northern assay, JNK2 mRNA expression in A549 cells; assay type: cell-based, human
Experimental: In order to evaluate the activity of potential JNK-modulating oligonucleotides, human lung carcinoma cell line A549 (American Type Culture Collection, 10801 University Boulevard, Manassas, Va. 20110-2209, No. ATCC CCL-185) cells or other cell lines as indicated in the Examples, were grown and treated with oligonucleotides or control solutions as detailed below. After harvesting, cellular extracts were prepared and examined for specific JNK mRNA levels or JNK protein levels (i.e., Northern or Western assays, respectively). In all cases, “% expression” refers to the amount of JNK-specific signal in an oligonucleotide-treated cell relative to an untreated cell (or a cell treated with a control solution that lacks oligonucleotide), and “% inhibition” is calculated as
100%−%Expression=%Inhibition.
The mRNA expression of each JNK protein was determined by using a nucleic acid probe specifically hybridizable thereto. Nucleic acid probes specific for JNK1, JNK2 and JNK3 are described in Examples 3, 4 and 5, respectively. The probes were radiolabelled by means well known in the art (see, e.g., Short Protocols in Molecular Biology, 2nd Ed., Ausubel et al., Eds., John Wiley & Sons, New York, 1992, pages 3-11 to 2-3-44 and 4-17 to 4-18; Ruth, Chapter 6 In: Methods in Molecular Biology, Vol. 26: Protocols for Oligonucleotide Conjugates, Agrawal, ed., Humana Press Inc., Totowa, N.J., 1994, pages 167-185; and Chapter 10 In: Molecular Cloning: A Laboratory Manual, 2nd Ed., Sambrook et al., Eds., pages 10.1-10.70). The blots were stripped and reprobed with a ^32P-labeled glyceraldehyde 3-phosphate dehydrogenase (G3PDH) probe (Clontech Laboratories, Inc., Palo Alto, Calif.) in order to confirm equal loading of RNA and to allow the levels of JNK transcripts to be normalized with regard to the G3PDH signals.
A549 cells were grown in T-75 flasks until 80-90% confluent. At this time, the cells were washed twice with 10 mL of media (DMEM), followed by the addition of 5 mL of DMEM containing 20 μg/mL of LIPOFECTIN™ (i.e., 1:1 (w/w) DOTMA/DOPE, Life Technologies, Gaithersburg, Md.; DOTMA=N-[1-(2,3-dioleyoxy)propyl]-N,N,N-trimethylammonium chloride; DOPE=dioleoyl phosphatidylethanolamine). The oligonucleotides were added from a 10 μM stock solution to a final concentration of 400 nM, and the two solutions were mixed by swirling the flasks. As a control, cells were treated with LIPOFECTIN™ without oligonucleotide under the same conditions and for the same times as the oligonucleotide-treated samples. After 4 hours at 37° C., the medium was replaced with fresh DMEM containing 10% serum. The cells were allowed to recover for 18 hours. Total cellular RNA was then extracted in guanidinium, subject to gel electrophoresis and transferred to a filter according to techniques known in the art (see, e.g., Chapter 7 In: Molecular Cloning: A Laboratory Manual, 2nd Ed., Sambrook et al., Eds., pages 7.1-7.87, and Short Protocols in Molecular Biology, 2nd Ed., Ausubel et al., Eds., John Wiley & Sons, New York, 1992, pages 2-24 to 2-30 and 4-14 to 4-29). Filters were typically hybridized overnight to a probe specific for the particular JNK gene of interest in hybridization buffer (25 mM KPO4, pH 7.4; 5×SSC; 5× Denhardt's solution, 100 μg/ml Salmon sperm DNA and 50% formamide) (Alahari et al., Nucl. Acids Res., 1993, 21, 4079). This was followed by two washes with 1×SSC, 0.1% SDS and two washes with 0.25×SSC, 0.1% SDS. Hybridizing bands were visualized by exposure to X-OMAT AR film and quantitated using a PHOSPHORIMAGER™ essentially according to the manufacturer's instructions (Molecular Dynamics, Sunnyvale, Calif.).
In initial screenings of a set of oligonucleotides derived from the JNK2 sequence (Table 9) for biological activity, a cDNA clone of JNK2 (Kallunki et al., Genes & Development, 1994, 8, 2996) was radiolabeled and used as a JNK2-specific probe in Northern blots. […]

JNK1 mRNA = assay: Northern assay, JNK1 mRNA expression in A549 cells; assay type: cell-based, human; details: for RNA % Inhibition: JNK1 mRNA; for dose- and sequence-dependent response on JNK1 mRNA levels: A549 cells, 50, 100, 200 and 400 nM
rat JNK2 mRNA = assay: Northern assay, rat JNK2 (p54a) mRNA in A10 cells; assay type: cell-based; details: for inhibition of rat JNK2 mRNA levels: Table 22; for capacity to modulate both JNK1 and JNK2 (Pan JNK): rat JNK1 and JNK2 mRNA
Experimental: as §1, §2
These antisense compounds were tested for their ability to modulate levels of p54a (JNK2) mRNA in A10 cells using the radiolabeled human JNK2 cDNA as a probe as described supra. Oligonucleotides showing levels of inhibition from≧about 60% to about 100% of rat JNK2 mRNA levels include ISIS Nos. 18254, 18255, 18257, 18258, 18259, 18260 and 18265 (SEQ ID NOS:125, 126, 128, 129, 130, 131 and 136, respectively). These oligonucleotides are preferred embodiments of the invention for modulating rat JNK2 expression. […] These oligonucleotides are thus more preferred embodiments of the invention for modulating rat JNK2 expression. ISIS 18259 (SEQ ID NO:130) was chosen for use in further studies (infra).
as §3

[1] = t = 48 h, 300 nM for initial 20 hours then 200 nM for 4 hours

Substance: 21860 (antisense TGTTGTCACGTTTACTTCTG; 2'-O-methyl wings, phosphorothioate gap, chemistry not fully specified) [compound 21860]
- inhibition of rat JNK1 mRNA levels (rat JNK1 mRNA): at least 90%

Substance: 12567 (antisense dG*dG*dT*dC*dC*dC*dG*dT*dC*dG*dA*dG*dG*dC*dA*dT*dC*dA*dA*dG) [compound 12567]
- % EXPRESSION (JNK2 mRNA; JNK2 mRNA, A549 cells, 400 nM oligonucleotide, relative to control): 18%

Substance: 15348 (antisense CTCTCTGTAGGCCCGCTTGG; wingmer, 5' 2'-MOE, phosphorothioate, chemistry not fully specified) [compound 15348]
- RNA % Inhibition (JNK1 mRNA; [1]): > 70%
- RNA % Inhibition (JNK1 mRNA; t = 72 h): > 70%

Substance: 21864 (antisense TCGTTCCTGCAGTCCTTGCC; 2'-O-methyl wings, phosphorothioate gap, chemistry not fully specified) [compound 21864]
- inhibition of rat JNK1 mRNA levels (rat JNK1 mRNA): at least 90%

Substance: 21865 (antisense CCATTTCTCCCATAATGCAC; 2'-O-methyl wings, phosphorothioate gap, chemistry not fully specified) [compound 21865]
- inhibition of rat JNK1 mRNA levels (rat JNK1 mRNA): at least 90%

Substance: 15350 (antisense CTCTCTGTAGGCCCGCTTGG; wingmer, 3' P=O 2'-MOE, chemistry not fully specified) [compound 15350]
- RNA % Inhibition (JNK1 mRNA; [1]): 50.8%

Substance: 15354 (antisense eGeTe[5mC]e[5mC]eG*dG*dG*dC*dC*dA*dG*dG*dC*dC*eAeAeAeGeTe[5mC]) [compound 15354]
- inhibition of JNK2 mRNA expression (JNK2 mRNA; 400 nM, Northern assay, Table 12): approximately 80%

Substance: C^sC^sA^sA^sG^sC^sG^sG^sG^sC^sC^sT^sA^sC^sA^sG^sA^sG^sA^sG (sense dC*dC*dA*dA*dG*dC*dG*dG*dG*dC*dC*dT*dA*dC*dA*dG*dA*dG*dA*dG) [ISIS 14320, reference compound]
- dose- and sequence-dependent response on JNK1 mRNA levels (JNK1 mRNA): neither of the control oligonucleotides effect any consistent response

Substance: 18260 (antisense eAeTe[5mC]eTeG*d[5mC]*dG*dA*dG*dG*dT*dT*dT*d[5mC]*dA*eTe[5mC]eGeGe[5mC]) [compound 18260]
- inhibition of rat JNK2 mRNA levels (rat JNK2 mRNA; A10 cells): ≥ 60%
- % Inhibition (rat JNK2 mRNA; rat JNK2 (p54a) mRNA in A10 cells, control = LIPOFECTIN only = 0%): 59%
- % EXPRESSION (rat JNK2 mRNA; rat JNK2 (p54a) mRNA in A10 cells, control = LIPOFECTIN only = 100%): 41%

Substance: 15351 (antisense CTCTCTGTAGGCCCGCTTGG; wingmer, 5' P=O 2'-MOE, chemistry not fully specified) [compound 15351]
- RNA % Inhibition (JNK1 mRNA; [1]): > 70%

Substance: 21861 (antisense CGGTAGGCTCGCTTAGCATG; 2'-O-methyl wings, phosphorothioate gap, chemistry not fully specified) [compound 21861]
- inhibition of rat JNK1 mRNA levels (rat JNK1 mRNA): at least 90%
- capacity to modulate both JNK1 and JNK2 (Pan JNK) (rat JNK2 mRNA; A10 cells): demonstrated a capacity to modulate both JNK1 and JNK2

Substance: 21862 (antisense CTAGGGATTTCTGTGGTGTG; 2'-O-methyl wings, phosphorothioate gap, chemistry not fully specified) [compound 21862]
- inhibition of rat JNK1 mRNA levels (rat JNK1 mRNA): at least 90%

Substance: 18259 (antisense eGe[5mC]eTe[5mC]eA*dG*dT*dG*dG*dA*d[5mC]*dA*dT*dG*dG*eAeTeGeAeG) [compound 18259]
- dose response, levels of mRNA encoding rat JNK2 (rat JNK2 mRNA; A10 cells, Northern assays): specifically modulate

Substance: C^sT^sT^sT^sC^sC^sG^sT^sT^sG^sG^sA^sC^sC^sC^sC^sT^sG^sG^sG (dC*dT*dT*dT*dC*dC*dG*dT*dT*dG*dG*dA*dC*dC*dC*dC*dT*dG*dG*dG; further chemistry not given here) [ISIS 14321, reference compound]
- dose- and sequence-dependent response on JNK1 mRNA levels (JNK1 mRNA): neither of the control oligonucleotides effect any consistent response

Substance: 21859 (antisense CTCATGATGGCAAGCAATTA; 2'-O-methyl wings, phosphorothioate gap, chemistry not fully specified) [compound 21859]
- dose response, levels of mRNA encoding rat JNK1 (rat JNK1 mRNA; Northern assays): specifically modulate levels of mRNA encoding JNK1
- inhibition of rat JNK1 mRNA levels (rat JNK1 mRNA): at least 90%

Substance: 18265 (antisense eTeGeTe[5mC]eA*dG*d[5mC]*dT*d[5mC]*dT*dA*d[5mC]*dA*dT*dT*eAeGeGe[5mC]eA) [compound 18265]
- inhibition of rat JNK2 mRNA levels (rat JNK2 mRNA; A10 cells): ≥ 60%

Substance: 18257 (antisense eGeAeTeAeT*d[5mC]*dA*dA*d[5mC]*dA*dT*dT*d[5mC]*dT*d[5mC]*e[5mC]eTeTeGeT) [compound 18257]
- inhibition of rat JNK2 mRNA levels (rat JNK2 mRNA; A10 cells): ≥ 60%

Substance: 21867 (antisense AGCTTCGTCTACGGAGATCC; 2'-O-methyl wings, phosphorothioate gap, chemistry not fully specified) [compound 21867]
- inhibition of rat JNK1 mRNA levels (rat JNK1 mRNA): at least 90%
- capacity to modulate both JNK1 and JNK2 (Pan JNK) (rat JNK2 mRNA; A10 cells): demonstrated a capacity to modulate both JNK1 and JNK2

Substance: 21866 (antisense TGAATTCAGGACAAGGTGTT; 2'-O-methyl wings, phosphorothioate gap, chemistry not fully specified) [compound 21866]
- inhibition of rat JNK1 mRNA levels (rat JNK1 mRNA): at least 90%

Substance: 21858 (antisense CCTGCTCGCGGCTCCGCGTT; 2'-O-methyl wings, phosphorothioate gap, chemistry not fully specified) [compound 21858]
- inhibition of rat JNK1 mRNA levels (rat JNK1 mRNA): at least 90%
